Among the data in PubChem BioAssay (NCI) are GI50 and TGI values, retold here.

SMILES strings stand for the structures.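 All cell lines were grown in 96-well plates and treated with compound for 48 hours. GI50 marks 50% less growth. TGI is the concentration that stops growth completely.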 Some results are limits rather than exact numbers.

Test systems include A498 renal; CAKI-1 renal; HCT-116 colon; HCT-15 colon; KM12 colon; M14 melanoma; NCI-H226 lung; SNB-75 CNS; SR leukemia; U251 CNS.
Common to all, as to test: NCI-60 cell line screen, 48 h

`C[n+]1c(/C=C/c2c(O)ccc3ccccc23)ccc2ccccc21`: the GI50 with A498 renal is 2340 nM; in the test with CAKI-1 renal it was 5.39 µM; with HCT-116 colon, 3.06 µM; in the test with HCT-15 colon, 5.84 µM; with KM12 colon, 4.33 µM; with M14 melanoma, 5.8 µM. Moreover, the GI50 in the test on NCI-H226 lung is 5.65 µM; in the test on SNB-75 CNS, 6.15 µM; with SR leukemia, 1210 nM; in the test with U251 CNS, 5.43 µM. For the same compound, the TGI in the test on A498 renal was determined as 9.43 µM; in the test with CAKI-1 renal, 12.3 µM; in the test with HCT-116 colon, 10.3 µM; with HCT-15 colon, 13.1 µM; with KM12 colon, 11.2 µM; in the test with M14 melanoma, 12.8 µM. The TGI in the test with NCI-H226 lung worked out at 13.2 µM; with SNB-75 CNS it was 14.2 µM; in the test on SR leukemia, 3.31 µM; in the test with U251 CNS, 13.8 µM.

On to `Cc1c(O)nc(-n2[nH]c3c(c2=O)CCCC3)[nH]c1=O`, for which the TGI in the test with A498 renal, in the test on CAKI-1 renal, with HCT-116 colon, in the test with HCT-15 colon, with KM12 colon and with M14 melanoma was above 100 µM throughout. For the same compound, the TGI with NCI-H226 lung, in the test on SR leukemia and in the test on U251 CNS was above 100 µM in each case.

As to `COC(=O)/C=C\C(C#N)(C#N)N=Cc1ccc(C)cc1`, the TGI stood at 31.8 µM in the test on A498 renal; 6.53 µM with CAKI-1 renal; 3.57 µM with HCT-116 colon; 6.87 µM in the test with HCT-15 colon; 35.3 µM in the test on KM12 colon; 4.42 µM in the test with M14 melanoma. The TGI with NCI-H226 lung came out at 21.5 µM; with SNB-75 CNS it was 31 µM; in the test with SR leukemia, 3.8 µM; with U251 CNS it was 27.7 µM.

Regarding `NCCCN1c2ccccc2Sc2ccc(Cl)cc21`, the TGI is above 10 µM with A498 renal; above 10 µM with CAKI-1 renal; 7.03 µM with HCT-116 colon; above 10 µM in the test on HCT-15 colon; above 6.37 µM with KM12 colon; 3.21 µM with M14 melanoma. Also, the TGI is above 10 µM with NCI-H226 lung, above 10 µM with SNB-75 CNS, above 8.89 µM with SR leukemia and above 10 µM in the test on U251 CNS.

Take `On1c(-c2ccccc2)c(-c2ccccc2N2CCCC2)c2ccccc21`: the TGI in the test with A498 renal, in the test with CAKI-1 renal, with HCT-116 colon, with HCT-15 colon, with KM12 colon and with M14 melanoma was above 100 µM throughout. For the same compound, the TGI in the test on NCI-H226 lung, with SNB-75 CNS, in the test with SR leukemia and with U251 CNS was above 100 µM each time.

For `CCCCCCCCCCCC[S+](C)C`, the TGI with A498 renal came out at 28.1 µM; in the test on CAKI-1 renal, 10.3 µM; in the test with HCT-116 colon it was 20.8 µM; with HCT-15 colon, 53.8 µM; with KM12 colon, 14.3 µM; in the test with M14 melanoma, 19.9 µM. Further, the TGI with NCI-H226 lung is 15.4 µM; in the test with SNB-75 CNS, 16.6 µM; with SR leukemia, above 100 µM; in the test on U251 CNS, 31.7 µM.

Consider `COc1ccc(C2c3cn[nH]c3CC3CCCCC32)cc1` (configuration not stated), for which the TGI is 23 µM with A498 renal; 27.3 µM in the test on CAKI-1 renal; 31.7 µM with HCT-116 colon; 31.7 µM with HCT-15 colon; 36.6 µM in the test on M14 melanoma; 36.9 µM with NCI-H226 lung. The TGI in the test on SNB-75 CNS was 27.2 µM; in the test with SR leukemia, 57.1 µM; in the test on U251 CNS, 28.9 µM.

For `Cc1cccc(C)c1NC(=O)C(Cc1c[nH]c2ccccc12)NC(=O)OCc1ccccc1` (configuration not stated), the TGI is 69.8 µM in the test on A498 renal; 50.2 µM in the test on CAKI-1 renal; above 100 µM in the test with HCT-116 colon; above 100 µM in the test on HCT-15 colon; 57 µM in the test on KM12 colon; 31.7 µM in the test with M14 melanoma. The TGI amounted to 48.2 µM with SNB-75 CNS, 85.7 µM in the test on SR leukemia and 47.2 µM in the test with U251 CNS.

With `O=C1NC(N2CCOCC2)=N/C1=C\c1ccco1`, the TGI in the test on CAKI-1 renal, with HCT-116 colon, in the test on HCT-15 colon, in the test with KM12 colon, with M14 melanoma and with NCI-H226 lung was above 100 µM throughout. Moreover, the TGI in the test on SNB-75 CNS, in the test on SR leukemia and in the test with U251 CNS was above 100 µM throughout.

Consider `C/C(=N\N=C1/C(=O)OC(c2ccccc2)=C1C(=O)c1ccccc1)c1ccc([N+](=O)[O-])cc1`, for which the TGI with A498 renal was above 100 µM; with CAKI-1 renal, above 100 µM; with HCT-116 colon it was above 100 µM; with HCT-15 colon, 67.6 µM; in the test on KM12 colon, above 100 µM; with M14 melanoma, above 100 µM. The TGI in the test with NCI-H226 lung is 79.4 µM; in the test with SR leukemia it was 34.6 µM; with U251 CNS, above 100 µM.

For the compound `COc1cc2c(cc1OC)C1C3CCCCC3CCN1CC2` (configuration not stated), the TGI with A498 renal, in the test with CAKI-1 renal, with HCT-116 colon, with HCT-15 colon, in the test with KM12 colon and in the test on NCI-H226 lung was above 100 µM in each case. Also, the TGI with SNB-75 CNS, in the test with SR leukemia and with U251 CNS was above 100 µM throughout.

As for `Cc1ccc(S(=O)(=O)n2c3c(c4ccccc42)CCN2C[C@H]([C@H](C)Br)CC[C@@H]32)cc1`, the TGI with A498 renal, in the test with CAKI-1 renal, in the test with HCT-15 colon, in the test with KM12 colon, in the test on M14 melanoma and in the test with NCI-H226 lung was above 100 µM each time. Also, the TGI in the test with SNB-75 CNS, with SR leukemia and in the test with U251 CNS was above 100 µM each time.

Regarding `CC(NC(=O)Cc1ccccc1)NC(=O)C(C)C(=O)Nc1ccccc1` (configuration not stated), the TGI is above 100 µM in the test on CAKI-1 renal; above 100 µM in the test with HCT-116 colon; above 100 µM in the test with HCT-15 colon; above 100 µM in the test on KM12 colon; above 100 µM with M14 melanoma; 74.3 µM in the test with NCI-H226 lung. The TGI in the test with SNB-75 CNS, in the test with SR leukemia and with U251 CNS was above 100 µM throughout.
